# Test results published in US20260001922A1, “PEPTIDES TARGETING SODIUM CHANNELS TO TREAT PAIN” (priority 2022, published 2026).
# Positions of bridges follow the written chain, without caps; N, C: chain ends. Residues, ends and D or L forms follow the SMILES beside them.
# Tested on: thermal nociception in naïve rats
# Conditions: 1.6 μg i.t.
smiles,measurement,value
"CSCC[C@@H]1NC(=O)[C@H](Cc2c[nH]c3ccccc23)NC(=O)[C@H](CCCCN)NC(=O)[C@H](CCC(N)=O)NC(=O)[C@@H](NC(=O)[C@@H](N)CCC(N)=O)CSSC[C@@H]2NC(=O)[C@@H]3CSSC[C@@H](C(=O)N[C@@H](CCCNC(=N)N)C(=O)N[C@@H](CCCCN)C(=O)N[C@@H](CCC(=O)O)C(=O)N[C@@H](CC(C)C)C(=O)N[C@@H](CC(C)C)C(N)=O)NC(=O)[C@H](Cc4c[nH]c5ccccc45)NC(=O)[C@H](CC(C)C)NC(=O)[C@H](CCCNC(=N)N)NC(=O)[C@H](CSSC[C@H](NC(=O)[C@H]([C@@H](C)O)NC(=O)[C@H](CCC(N)=O)NC1=O)C(=O)N[C@@H](CC(=O)O)C(=O)N[C@@H](CCCCN)C(=O)N[C@@H](CC(=O)O)C(=O)N[C@@H](CCCNC(=N)N)C(=O)N[C@@H](CCCCN)C(=O)N3)NC(=O)[C@H](CCCNC(=N)N)NC(=O)[C@H](Cc1ccccc1)NC(=O)CNC(=O)[C@H](CCC(=O)O)NC2=O [PTx2-3127] (H-QCQKWMQTCDKDRKCCEGFRCRLWCRKELL-NH2; disulfide 2-16, 9-21, 15-25)",motor activity,did not lame or significantly alter motor activity
